Results from US20260207600A1, “METHODS OF TREATMENT WITH MYOSIN MODULATOR” (MYOKARDIA, INC., priority 2019, published 2026).

System: subjects with symptomatic non-obstructive hypertrophic cardiomyopathy (nHCM)
Test: […]-HCM Phase 2 randomized, double-blind, placebo-controlled, concentration-guided study
Assay type: in vivo, human
Design: Overall KCCQ Summary Score / Clinical KCCQ Summary Score / Change in Overall KCCQ Summary Score, Mean / Change in Clinical KCCQ Summary Score, Mean / Change from Baseline in Overall KCCQ Summary Score, Mean / Change from Baseline in Clinical KCCQ Summary Score, Mean: scale not given here
Settings: for Composite functional endpoint Type 1, % / Composite functional endpoint Type 2, % / Met composite functional endpoint, either type, %: Combined Subgroup
Excerpt: This is a Phase 2 trial designed to assess the safety and tolerability of a range of exposures over 16 weeks of treatment in subjects with symptomatic, non-obstructive HCM. All study subjects were required to be diagnosed with non-obstructive HCM, with left ventricular wall thickness either ≥15 mm or ≥13 mm with a family history of HCM, LVEF≥55%, NYHA classifications of Class II or III, and NT-proBNP levels of greater than 300 pg/mL at rest. Baseline characteristics, such as age, weight, gender, pathogenic mutation status, background beta blocker use, NYHA classification and exercise capacity were approximately evenly distributed between active and placebo arms.
This double-blind study enrolled 59 individuals with nHCM (Left ventricular outflow tract gradient<30 mmHg; resting or provoked), NYHA Class II or III, and LVEF≥55%. Subjects were randomized 1:1:1 to one of two target plasma drug concentrations (Group 1: ~200 ng/mL and Group 2: ~ 500 ng/ml) or placebo for 16 weeks, followed by an 8-week washout. […] Predefined criteria, including LVEF (LVEF≤45%), guided study drug discontinuation if indicated. Cardiopulmonary exercise testing was performed at baseline and Week 16 to assess the impact on exercise capacity.
Dose adjustments will be based on PK parameters. Assessments include safety, standardized cardiopulmonary exercise testing (CPET) with measurement of peak oxygen consumption, echocardiography to evaluate left ventricular ejection fraction (LVEF) and parameters of diastolic function, symptoms, quality of life, daily step counts, and NT-proBNP at rest and after exercise. In addition, subjects may consent to hypertrophic cardiomyopathy genotyping and pharmacogenetic sampling.
Cardiac Troponin I levels were evaluated on plasma and serum samples of subjects at baseline and at various time points in the trial (Abbott Architect Stat Troponin-I assay (Ref. 2K41)). Cardiac Troponin T levels were evaluated on plasma and serum samples of subjects at baseline and at various time points in the trial (Roche Elecsys Troponin T hs assay) (Ref. 08469873190) performed on a cobas e 801 analyzer). NT-proBNP levels were evaluated on plasma samples using the Roche Elecsys proBNPII assay (Ref. 07027664190) on a cobas e 801 analyzer.
5 mg QD was used as the starting dose for the study. All subjects in the active treatment groups started on 5 mg QD. […] PK modeling was used to guide blinded dose adjustment at the Week 6 visit, based on the plasma concentrations collected at Week 4. Subjects in the placebo group underwent the same assessments in order to preserve the blind. […] Subjects were instructed to take the drug under fasting conditions, at approximately the same time each day, and with 8 ounces of water.
To achieve the target concentration, if a subject's Week 4 concentration was >450 ng/ml, the subject's dose was decreased to 2.5 mg QD; if Week 4 concentration was 110-450 ng/mL, the dose was maintained at 5 mg QD; and if Week 4 concentration was <110 ng/mL, the dose was increased to 10 mg QD.
Subjects were monitored for adverse events (AE), including high blood plasma concentration, systolic dysfunction, QT prolongation, and LVEF decrease. If any of the following thresholds were hit PK 1000 or more, QTcF 500, or LVEF 45%, the subjects were discontinued on drug. Specifically, high blood plasma concentration was defined as blood plasma concentration greater than or equal to 1000 ng/ml; QT prolongation was defined as QTcF greater than or equal to 500 ms; and LVEF shortening was defined as LVEF less than or equal to 45% (including serious adverse event (SAE) for LVEF less than or equal to 30%).
Efficacy and pharmacodynamics assessments were also made. Resting transthoracic echocardiography measurements were taken at Weeks 4, 8, 12 and 16. Ejection fraction (2-D) and LV frantional shortening were analyzed along with other echocardiographic at baseline measures including measure of diastolic function. […]

[1] = Elevated Troponin subgroup (N = 13), Mean
[2] = Elevated Troponin subgroup, Mean Difference vs Placebo
[3] = ITT, Group 1 ~200 ng/mL (n = 19)
[4] = ITT, Group 2 ~500 ng/mL (n = 21)
[5] = ITT, Week 16, pooled-mavacamten group
[6] = Other subgroup, Mean Difference vs Placebo
[7] = Subgroup with Elevated E/e′ at Baseline, Difference mavacamten vs placebo
[8] = Subgroup with Elevated E/e′ at Baseline, Pooled (n = 14)
[9] = Subgroup with Elevated cTnI at Baseline, Difference mavacamten vs placebo
[10] = Subgroup with Elevated cTnI at Baseline, Pooled (n = 13)
[11] = week 16, pooled-mavacamten group

CC(C)n1c(=O)cc(N[C@@H](C)c2ccccc2)[nH]c1=O [mavacamten, (S)-3-Isopropyl-6-((1-phenylethyl)amino)pyrimidine-2, 4(1H,3H)-dione]
participants with a decrease in LVEF to ≤45% (5 participants among the 40 receiving active treatment, weeks 11-12): 12.5%
Composite functional endpoint Type 1, % (Group 1 ~200 ng/mL (n = 9)): (11.1) %
Composite functional endpoint Type 2, % (Group 1 ~200 ng/mL (n = 9)): (22.2) %
Met composite functional endpoint, either type, % (Group 1 ~200 ng/mL (n = 9)): (33.3) %
Composite functional endpoint Type 1, % (Group 2 ~500 ng/mL (n = 12)): (8.3) %
Composite functional endpoint Type 2, % (Group 2 ~500 ng/mL (n = 12)): (25.0) %
Met composite functional endpoint, either type, % (Group 2 ~500 ng/mL (n = 12)): (33.3) %
Composite functional endpoint Type 1, % (Pooled (n = 21)): (9.5) %
Composite functional endpoint Type 2, % (Pooled (n = 21)): (23.8) %
Met composite functional endpoint, either type, % (Pooled (n = 21)): (33.3) %
Average Daily Accelerometry Unit [1]: 136328
Clinical KCCQ Summary Score [1]: 6.891
NYHA Class [1]: −0.462
Overall KCCQ Summary Score [1]: 6.410
Peak VO2 [1]: 1.475 mL/min/kg
Serum NT-proBNP [1]: -950.462 ng/L
Serum Troponin I [1]: -0.123 ng/mL
Average Daily Accelerometry Unit [2]: 350347
Clinical KCCQ Summary Score [2]: 8.766
NYHA Class [2]: −0.262
Overall KCCQ Summary Score [2]: 1.896
Peak VO2 [2]: 2.695 mL/min/kg
Serum NT-proBNP [2]: -784.062 ng/L
Serum Troponin I [2]: -0.083 ng/mL
participants achieving the composite functional endpoint (ITT, Group 1): 16%
Change in Clinical KCCQ Summary Score, Mean [3]: 0.11
Change in LVEDV, Mean [3]: 1.15 mL
Change in LVEF, Mean [3]: −2.30%
Change in Lateral e′, Mean [3]: 0.34 cm/s
Change in NYHA Class, Mean [3]: −0.6
Change in Overall KCCQ Summary Score, Mean [3]: 0.35
Change in Peak VO2, Mean [3]: 0.36 mL/min/kg
Change in Septal e′, Mean [3]: 0.64 cm/s
NT-proBNP, Geometric mean, percent change [3]: −47.1%
cTnI, Geometric mean, percent change [3]: −23.4%
participants achieving the composite functional endpoint (ITT, Group 2): 29%
Change in Clinical KCCQ Summary Score, Mean [4]: 5.66
Change in LVEDV, Mean [4]: 6.50 mL
Change in LVEF, Mean [4]: −5.61%
Change in Lateral e′, Mean [4]: 1.46 cm/s
Change in NYHA Class, Mean [4]: −0.3
Change in Overall KCCQ Summary Score, Mean [4]: 6.24
Change in Peak VO2, Mean [4]: 0.12 mL/min/kg
Change in Septal e′, Mean [4]: 1.60 cm/s
NT-proBNP, Geometric mean, percent change [4]: −57.9%
cTnI, Geometric mean, percent change [4]: −41.0%
Change in Clinical KCCQ Summary Score, Mean (ITT, Pooled (n = 40)): 3.37
Change in LVEDV, Mean (ITT, Pooled (n = 40)): 4.04 mL
Change in LVEF, Mean (ITT, Pooled (n = 40)): −4.09%
Change in Lateral e′, Mean (ITT, Pooled (n = 40)): 0.94 cm/s
Change in NYHA Class, Mean (ITT, Pooled (n = 40)): −0.4
Change in Overall KCCQ Summary Score, Mean (ITT, Pooled (n = 40)): 3.82
Change in Peak VO2, Mean (ITT, Pooled (n = 40)): 0.22 mL/min/kg
Change in Septal e′, Mean (ITT, Pooled (n = 40)): 1.17 cm/s
NT-proBNP, Geometric mean, percent change (ITT, Pooled (n = 40)): −53.2%
cTnI, Geometric mean, percent change (ITT, Pooled (n = 40)): −34.0%
cTnI geometric mean difference [5]: -0.008 ng/mL
cTnI geometric mean, decrease [5]: 34%
Average Daily Accelerometry Unit (Other subgroup (N = 27), Mean): 82413
Clinical KCCQ Summary Score (Other subgroup (N = 27), Mean): 1.195
NYHA Class (Other subgroup (N = 27), Mean): −0.417
Overall KCCQ Summary Score (Other subgroup (N = 27), Mean): 2.210
Peak VO2 (Other subgroup (N = 27), Mean): -0.530 mL/min/kg
Serum NT-proBNP (Other subgroup (N = 27), Mean): -280.667 ng/L
Serum Troponin I (Other subgroup (N = 27), Mean): -0.003 ng/mL
Average Daily Accelerometry Unit [6]: 293157
Clinical KCCQ Summary Score [6]: −5.964
NYHA Class [6]: 0.122
Overall KCCQ Summary Score [6]: −4.495
Peak VO2 [6]: -1.807 mL/min/kg
Serum NT-proBNP [6]: -178.513 ng/L
Serum Troponin I [6]: -0.004 ng/mL
Change from Baseline in Clinical KCCQ Summary Score, Mean [7]: 4.1
Change from Baseline in LVEDVi, Mean [7]: 3.9 mL/m^2
Change from Baseline in NT-proBNP, Mean [7]: -355 ng/L
Change from Baseline in NYHA Class, Mean [7]: 0.0
Change from Baseline in Overall KCCQ Summary Score, Mean [7]: 0.4
Change from Baseline in Peak VO2, Mean [7]: 1.9 mL/min/kg
Change from Baseline in cTnI, Mean [7]: -0.07 ng/mL
Change from Baseline in Clinical KCCQ Summary Score, Mean [8]: 4.6
Change from Baseline in LVEDVi, Mean [8]: 2.8 mL/m^2
Change from Baseline in NT-proBNP, Mean [8]: -656 ng/L
Change from Baseline in NYHA Class, Mean [8]: −0.4
Change from Baseline in Overall KCCQ Summary Score, Mean [8]: 4.7
Change from Baseline in Peak VO2, Mean [8]: 1.2 mL/min/kg
Change from Baseline in cTnI, Mean [8]: -0.09 ng/mL
Change from Baseline in Clinical KCCQ Summary Score, Mean [9]: 8.8
Change from Baseline in LVEDVi, Mean [9]: 0.042 mL/m^2
Change from Baseline in NT-proBNP, Mean [9]: -784 ng/L
Change from Baseline in NYHA Class, Mean [9]: −0.3
Change from Baseline in Overall KCCQ Summary Score, Mean [9]: 1.9
Change from Baseline in Peak VO2, Mean [9]: 2.70 mL/min/kg
Change from Baseline in cTnI, Mean [9]: -0.083 ng/mL
Change from Baseline in Clinical KCCQ Summary Score, Mean [10]: 6.9
Change from Baseline in LVEDVi, Mean [10]: 0.79 mL/m^2
Change from Baseline in NT-proBNP, Mean [10]: -951 ng/L
Change from Baseline in NYHA Class, Mean [10]: −0.5
Change from Baseline in Overall KCCQ Summary Score, Mean [10]: 6.4
Change from Baseline in Peak VO2, Mean [10]: 1.47 mL/min/kg
Change from Baseline in cTnI, Mean [10]: -0.12 ng/mL
subjects with transient ejection fraction reductions below the protocol-defined threshold of 45% (active drug arms): five
participants achieving the composite functional endpoint (combined subgroup (elevated cTnI or E/e′average >14 at baseline), mavacamten-treated): 33%
study subjects in whom cTnI levels remained unchanged (elevated cTnI subgroup, week 16 (2 of 13)): 15.4%
study subjects in whom cTnI levels decreased (elevated cTnI subgroup, week 16 vs baseline (11 of 13)): 84.6%
Serious adverse events (SAEs), frequency in subjects (subjects receiving mavacamten, placebo arm 21%): 10%
percentage change in cardiac troponin I from baseline (treated individuals): 30-80%
NT-proBNP geometric mean, decrease (week 16, Group 1): 47%
NT-proBNP geometric mean, decrease (week 16, Group 2): 58%
NT-proBNP geometric mean difference [11]: -435 pg/mL
NT-proBNP geometric mean, decrease [11]: 53%
